Results from patent publication US9693997B2, “Antiviral compounds” (priority 2013, dated 2017).
Counter-ions that a name gives are not always drawn. Like-named read-outs stand apart in the source and are kept apart here.

Columns and labels:
[1] = test system: Pseudotyped HCV GT1b particles (HCVpp), entry into Huh7-high CD81 cells; assay: microbe, parasite or virus in culture; format: cell-based, HCV GT1b Con1 strain
[2] = test system: pseudotyped VSV G particles (VSVpp) in Huh7-high CD81 cells; assay: microbe, parasite or virus in culture; format: cell-based, vesicular stomatitis virus
[3] = Hepatitis C virus, GT1B, 72 h, read-out: HCVpp GT-1b (EC50, μM)
[4] = Vesicular stomatitis virus, 72 h, read-out: VSVpp (EC50, μM)

SMILES	EC50 [1, 3]	EC50 [2, 4]	EC50 ([1]; read-out: HCVpp GT-1b (EC50))	EC50 ([2]; read-out: VSVpp (EC50))
Nc1nc(Nc2cc(Cl)c(-c3ccc(OC4CCN(CCC(F)(F)F)CC4)cc3)c(C(F)(F)F)c2)n[nH]1 [Compound 140, N*3*-{6-Chloro-2-trifluoromethyl-4′-[1-(3,3,3-trifluoro-propyl)-piperidin-4-yloxy]-biphenyl-4-yl}-1H-[1,2,4]triazole-3,5-diamine hydrochloride]	0.111 µM	> 10 µM		
CC(C)(C)OC(=O)N1CCC[C@H]1COc1ccc(-c2c(Cl)cc(Nc3n[nH]c(N)n3)cc2C(F)(F)F)cc1 [Compound 277, (S)-2-[4′-(5-Amino-1H-[1,2,4]triazol-3-ylamino)-2′-chloro-6′-trifluoromethyl-biphenyl-4-yloxymethyl]-pyrrolidine-1-carboxylic acid tert-butyl ester]	0.312 µM	27.9 µM		
CC(C)(C)OC(=O)N1CCC[C@@H]1COc1ccc(-c2c(Cl)cc(Nc3n[nH]c(N)n3)cc2Cl)cc1 [Compound 275, (R)-2-[4′-(5-Amino-1H-[1,2,4]triazol-3-ylamino)-2′,6′-dichloro-biphenyl-4-yloxymethyl]-pyrrolidine-1-carboxylic acid tert-butyl ester]	0.285 µM	> 10 µM		
Nc1nc(Nc2cc(Cl)c(-c3ccc(S(=O)(=O)N4CC(F)C4)cc3)c(C(F)(F)F)c2)n[nH]1 [Compound 233, N*3*-[6-Chloro-4′-(3-fluoro-azetidine-1-sulfonyl)-2-trifluoromethyl-biphenyl-4-yl]-1H-[1,2,4]triazole-3,5-diamine]	0.051 µM	> 10 µM		
CC(C)(C)CCN(CCOc1ccc(-c2c(Cl)cc(Nc3n[nH]c(N)n3)cc2C(F)(F)F)cc1)CCC(C)(C)C [Compound 137, N*3*-(4′-{2-[Bis-(3,3-dimethyl-butyl-amino)-ethoxy}-6-chloro-2-trifluoromethyl-biphenyl-4-yl]-1H-[1,2,4]triazole-3,5-diamine]	0.062 µM	> 10 µM		
Cc1ccc(-c2c(Cl)cc(Nc3n[nH]c(N)n3)cc2C(F)(F)F)cc1S(=O)(=O)NC(C)(C)C [Compound 18, 4′-(5-Amino-1H-[1,2,4]triazol-3-ylamino)-2′-chloro-4-methyl-6′-trifluoromethyl-biphenyl-3-sulfonic acid tert-butylamide]	0.032 µM	3.47 µM		
CC1(NS(=O)(=O)c2ccc(-c3c(Cl)cc(Nc4n[nH]c(N)n4)cc3C(F)(F)F)cc2)COC1 [Compound 60, 4′-(5-Amino-1H-[1,2,4]triazol-3-ylamino)-6′-chloro-2′-trifluoromethyl-biphenyl-4-sulfonic acid (3-methyl-oxetan-3-yl)-amide]	0.014 µM	> 10 µM		
COc1cc(-c2c(Cl)cc(Nc3n[nH]c(N)n3)cc2C(F)(F)F)ccc1S(=O)(=O)N[C@H]1CC[C@H](O)CC1 [Compound 167, 4′-(5-amino-1H-1,2,4-triazol-3-ylamino)-2′-chloro-N-(trans-4-hydroxycyclohexyl)-3-methoxy-6′-(trifluoromethyl)biphenyl-4-sulfonamide]	0.009 µM	> 10 µM		
Nc1nc(Nc2cc(Cl)c(-c3ccc(S(=O)(=O)C[C@@H]4CCCN4)cc3)c(C(F)(F)F)c2)n[nH]1 [Compound 35, N*3*-[2-Chloro-4′-((S)-1-pyrrolidin-2-ylmethanesulfonyl)-6-trifluoromethyl-biphenyl-4-yl]-1H-[1,2,4]triazole-3,5-diamine; hydrochloride]	0.127 µM	4.79 µM		
Nc1ccc(-c2c(Cl)cc(Nc3n[nH]c(N)n3)cc2Cl)cc1 [Compound 50, N*3*-(4′-Amino-2,6-dichloro-biphenyl-4-yl)-1H-[1,2,4]triazole-3,5-diamine]	0.689 µM	> 10 µM		
CC(C)N1CC(C)(NS(=O)(=O)c2ccc(-c3c(Cl)cc(Nc4n[nH]c(N)n4)cc3C(F)(F)F)cc2)C1 [Compound 211, 4′-(5-amino-1H-1,2,4-triazol-3-ylamino)-2′-chloro-N-(1-isopropyl-3-methylazetidin-3-yl)-6′-(trifluoromethyl)biphenyl-4-sulfonamide; compound with trifluoro-acetic acid]			0.012 µM	3.65 µM
CC(C)(C)OC(=O)N1CC(COc2ccc(-c3c(Cl)cc(Nc4n[nH]c(N)n4)cc3Cl)cc2)C1 [Compound 260, 3-[4′-(5-Amino-1H-[1,2,4]triazol-3-ylamino)-2′,6′-dichloro-biphenyl-4-yloxymethyl]-azetidine-1-carboxylic acid tert-butyl ester]	0.022 µM	17.5 µM		
COc1ccc(-c2c(Cl)cc(Nc3n[nH]c(N)n3)cc2C(F)(F)F)cc1S(=O)(=O)NC1CCNCC1 [Compound 204, 4′-(5-amino-1H-1,2,4-triazol-3-ylamino)-2′-chloro-4-methoxy-N-(piperidin-4-yl)-6′-(trifluoromethyl)biphenyl-3-sulfonamide hydrochloride]	0.011 µM	> 10 µM		
CN(C)S(=O)(=O)c1cccc(-c2c(F)cc(Nc3nc(N)n[nH]3)cc2C(F)(F)F)c1 [Compound 84, 4′-(5-Amino-2H-[1,2,4]-triazol-3-ylamino)-6′-fluoro-2′-trifluoromethyl-biphenyl-3-sulfonic acid dimethylamide]	0.43 µM	16.8 µM		
COc1ccc(-c2c(Cl)cc(Nc3n[nH]c(N)n3)cc2C(F)(F)F)cc1S(=O)(=O)NC1(C)CNC1 [Compound 215, 4′-(5-amino-1H-1,2,4-triazol-3-ylamino)-2′-chloro-4-methoxy-N-(3-methylazetidin-3-yl)-6′-(trifluoromethyl)biphenyl-3-sulfonamide hydrochloride]	0.111 µM	> 10 µM		
CS(=O)(=O)CCN1CCC(Oc2ccc(-c3c(Cl)cc(Nc4n[nH]c(N)n4)cc3C(F)(F)F)cc2)CC1 [Compound 141, N*3*-{6-Chloro-4′-[1-(2-methanesulfonyl-ethyl)-piperidin-4-yloxy]-2-trifluoromethyl-biphenyl-4-yl}-1H-[1,2,4]triazole-3,5-diamine hydrochloride]	0.194 µM	> 10 µM		
Nc1nc(Nc2cc(Cl)c(-c3ccc(OC4CCCN(CCC(F)(F)F)C4)cc3)c(C(F)(F)F)c2)n[nH]1 (stereo not drawn) [Compound 133, N*3*-{6-Chloro-2-trifluoromethyl-4′-[1-(3,3,3-trifluoro-propyl)-piperidin-3-yloxy]-biphenyl-4-yl}-1H-[1,2,4]triazole-3,5-diamine hydrochloride]	0.13 µM	> 10 µM		
Nc1nc(Nc2cc(Cl)c(-c3ccc(S(=O)(=O)C4CNC4)cc3)c(C(F)(F)F)c2)n[nH]1 [Compound 67, N*3*-[4′-(Azetidine-3-sulfonyl)-6-chloro-2-trifluoromethyl-biphenyl-4-yl]-1H-[1,2,4]triazole-3,5-diamine hydrochloride]	0.107 µM	> 10 µM		
CS(=O)(=O)c1ccc(-c2c(F)cc(Nc3n[nH]c(N)n3)cc2Cl)cc1 [Compound 30, N*3*-(2-Chloro-6-fluoro-4′-methanesulfonyl-biphenyl-4-yl)-1H-[1,2,4]triazole-3,5-diamine]	0.107 µM	1.53 µM		
CN(C(=O)OC(C)(C)C)C(C)(C)COc1ccc(-c2c(Cl)cc(Nc3n[nH]c(N)n3)cc2C(F)(F)F)cc1 [Compound 128, {2-[4′-(5-Amino-1H-[1,2,4]triazol-3-ylamino)-6′-chloro-2′-trifluoromethyl-biphenyl-4-yloxy]-1,1-dimethyl-ethyl}-methyl-carbamic acid tert-butyl ester]	0.011 µM	9.26 µM		
CS(=O)(=O)n1ccc2cc(-c3c(Cl)cc(Nc4n[nH]c(N)n4)cc3Cl)ccc21 [Compound 42, N*3*-[3,5-Dichloro-4-(1-methanesulfonyl-1H-indol-5-yl)-phenyl]-1H-[1,2,4]triazole-3,5-diamine]	0.212 µM	2.27 µM		
CC(C)S(=O)(=O)c1ccc(-c2c(F)cc(Nc3nc(N)n[nH]3)cc2C(F)(F)F)cc1 [Compound 71, N^5-[6-Fluoro-4′-(propane-2-sulfonyl)-2-trifluoromethyl-biphenyl-4-yl]-1H-[1,2,4]-triazole-3,5-diamine]	0.153 µM	> 10 µM		
CCCOC(=O)Nc1ccc(-c2c(Cl)cc(Nc3n[nH]c(N)n3)cc2C(F)(F)F)cc1 [Compound 237, [4′-(5-amino-1H-[1,2,4]triazol-3-ylamino)-2′-chloro-6′-trifluoromethyl-biphenyl-4-yl]-carbamic acid propyl ester]	0.058 µM	3.67 µM		
CS(=O)(=O)N1CCOc2ccc(-c3c(Cl)cc(Nc4n[nH]c(N)n4)cc3C(F)(F)F)cc21 [Compound 44, N*3*-[3-Chloro-4-(4-methanesulfonyl-3,4-dihydro-2H-benzo[1,4]oxazin-6-yl)-5-trifluoromethyl-phenyl]-1H-[1,2,4]triazole-3,5-diamine]	0.236 µM	4.92 µM		
COc1ccc(-c2c(Cl)cc(Nc3n[nH]c(N)n3)cc2C(F)(F)F)cc1S(=O)(=O)NC1CCNCC1 [Compound 222, 4′-(5-Amino-1H-[1,2,4]triazol-3-ylamino)-6′-chloro-4-methoxy-2′-trifluoromethyl-biphenyl-3-sulfonic acid piperidin-4-ylamide; compound with trifluoro-acetic acid]			0.014 µM	
COc1ccc(-c2c(Cl)cc(Nc3n[nH]c(N)n3)cc2C(F)(F)F)cc1S(=O)(=O)NC1CCOCC1 [Compound 168, 4′-(5-amino-1H-1,2,4-triazol-3-ylamino)-2′-chloro-4-methoxy-N-(tetrahydro-2H-pyran-4-yl)-6′-(trifluoromethyl)biphenyl-3-sulfonamide]	0.011 µM			
COc1ccc(-c2c(Cl)cc(Nc3n[nH]c(N)n3)cc2C(F)(F)F)cc1S(N)(=O)=O [Compound 180, 4′-(5-amino-1H-1,2,4-triazol-3-ylamino)-2′-chloro-4-methoxy-6′-(trifluoromethyl)biphenyl-3-sulfonamide]	0.036 µM			
